This note sets out measurements from patent US20250154115A1, “ARYLBENZOISOXAZOLE COMPOUNDS AS IP6K AND IPMK INHIBITORS AND METHODS OF USE THEREOF” (THE UNIVERSITY OF NORTH CAROLINA AT CHAPEL HILL, priority 2022, published 2025).

What all share (assay type): biochemical
One assay deals with IPMK (Homo sapiens (Human), UniProt Q8NFU5). The experiment in a line: Enzyme-coupled assay, IPMK IC50.
The target of a further assay is IP6K3 (Homo sapiens (Human), UniProt Q96PC2). The experiment in a line: Enzyme-coupled assay of IP6K3 activity (Dipp1-coupled, malachite green Pi release). Particulars: enzyme-coupled assay.
For another assay, the target named is IP6K1 (Homo sapiens (Human), UniProt Q92551). Nature of the assay: Enzyme-coupled assay of IP6K1 activity (Dipp1-coupled, malachite green Pi release). The protocol: (§1) […] The cells were disrupted using a constant cell disruption system (Constant Systems) under 20 kPsi.
(§2) Pi release was determined with a malachite green colorimetric assay.^45 Where indicated, TNP (Cayman Chemical) was added to the assays (FIG. 2A-E).

In another assay the target is IP6K2 (Homo sapiens (Human), UniProt Q9UHH9). The experiment in a line: Enzyme-coupled assay of IP6K2 activity (Dipp1-coupled, malachite green Pi release). Here is the method:
as §1, §2

Setting [1] is: determined from enzyme-coupled assays.

pIC50: −log10 of the molar value. Bounds are passed on as bounds.

Chain of IPMK (Q8NFU5 whole entry, species assumed): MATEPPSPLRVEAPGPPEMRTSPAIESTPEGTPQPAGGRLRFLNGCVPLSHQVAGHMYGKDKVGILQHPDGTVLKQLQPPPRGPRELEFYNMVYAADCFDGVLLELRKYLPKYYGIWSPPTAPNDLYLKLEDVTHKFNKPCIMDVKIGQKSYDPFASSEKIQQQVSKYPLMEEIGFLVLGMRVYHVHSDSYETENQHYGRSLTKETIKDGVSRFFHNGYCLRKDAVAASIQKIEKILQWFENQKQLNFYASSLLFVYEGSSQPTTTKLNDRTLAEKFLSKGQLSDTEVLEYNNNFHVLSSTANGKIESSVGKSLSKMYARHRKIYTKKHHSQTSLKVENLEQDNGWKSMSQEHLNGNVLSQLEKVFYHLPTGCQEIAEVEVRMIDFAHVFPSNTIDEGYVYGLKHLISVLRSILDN
Chain of IP6K1 (Q92551 whole entry): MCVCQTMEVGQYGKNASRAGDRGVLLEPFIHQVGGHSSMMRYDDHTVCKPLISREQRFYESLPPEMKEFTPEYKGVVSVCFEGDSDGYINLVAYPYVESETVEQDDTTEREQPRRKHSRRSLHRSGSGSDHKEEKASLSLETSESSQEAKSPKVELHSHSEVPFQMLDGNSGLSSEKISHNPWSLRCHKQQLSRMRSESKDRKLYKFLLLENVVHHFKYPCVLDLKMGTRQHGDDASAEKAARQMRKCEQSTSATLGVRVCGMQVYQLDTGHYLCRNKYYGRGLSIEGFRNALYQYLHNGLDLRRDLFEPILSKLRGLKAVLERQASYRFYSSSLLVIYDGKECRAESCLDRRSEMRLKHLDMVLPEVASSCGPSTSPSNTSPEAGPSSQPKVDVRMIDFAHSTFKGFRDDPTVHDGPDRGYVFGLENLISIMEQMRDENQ
Chain of IP6K2 (Q9UHH9 whole entry): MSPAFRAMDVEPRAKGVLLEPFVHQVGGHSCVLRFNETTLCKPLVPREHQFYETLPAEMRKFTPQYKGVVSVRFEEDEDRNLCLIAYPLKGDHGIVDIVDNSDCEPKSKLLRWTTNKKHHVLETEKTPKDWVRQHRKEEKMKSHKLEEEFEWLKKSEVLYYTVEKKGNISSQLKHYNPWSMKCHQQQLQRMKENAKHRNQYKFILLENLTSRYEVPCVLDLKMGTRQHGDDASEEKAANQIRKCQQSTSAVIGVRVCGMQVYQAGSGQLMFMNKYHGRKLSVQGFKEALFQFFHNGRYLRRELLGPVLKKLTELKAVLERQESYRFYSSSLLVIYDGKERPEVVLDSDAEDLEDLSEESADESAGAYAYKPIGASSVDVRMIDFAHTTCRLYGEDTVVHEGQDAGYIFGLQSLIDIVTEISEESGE
Chain of IP6K3 (Q96PC2 whole entry): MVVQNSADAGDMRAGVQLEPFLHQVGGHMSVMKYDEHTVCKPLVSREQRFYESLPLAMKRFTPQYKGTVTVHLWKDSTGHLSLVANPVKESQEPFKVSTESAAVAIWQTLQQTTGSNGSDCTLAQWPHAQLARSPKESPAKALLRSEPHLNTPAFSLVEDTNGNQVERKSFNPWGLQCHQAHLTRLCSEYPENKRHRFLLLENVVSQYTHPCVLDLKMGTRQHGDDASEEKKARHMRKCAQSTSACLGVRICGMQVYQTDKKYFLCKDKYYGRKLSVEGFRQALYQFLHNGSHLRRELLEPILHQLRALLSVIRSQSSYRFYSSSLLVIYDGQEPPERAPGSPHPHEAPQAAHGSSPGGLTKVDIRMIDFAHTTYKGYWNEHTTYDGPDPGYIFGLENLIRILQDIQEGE

For `O=C(O)c1ccc2noc(-c3ccc(NC(=O)c4ccncn4)cc3)c2c1` [Compound 47], the “IPMK IC50” value on IPMK (enzyme-coupled assay, Table 2) is “−”. Further, the pIC50 on IP6K3 (Table 2) was 6.00 to 7.00.

Regarding `O=C(O)c1ccc2noc(-c3cccc(Oc4ncc(Cl)cc4Cl)c3)c2c1` [Compound 30], the pIC50 against IPMK (enzyme-coupled assay, Table 2) was 7.00 to 8.00; against IP6K3 (Table 2) it was 4.00 to 6.00.

For the molecule `CN(C)C(=O)/C=C/c1ccc2noc(-c3ccccc3)c2c1` [Compound 9], the “IP6K3 IC50” value on IP6K3 (Table 1) is listed as “−”.

In the case of `O=C(O)c1ccc2noc(-c3ccc(N4CCCC4=O)cc3)c2c1` [Compound 56], the pIC50 against IPMK (enzyme-coupled assay, Table 3) was 4.00 to 6.00; against IP6K3 (Table 3) it was 4.00 to 6.00.

With `O=C(O)c1ccc2noc(-c3ccc(Cc4ccccc4)cc3)c2c1` [Compound 54, 3-(4-benzylphenyl)benzo[c]isoxazole-5-carboxylic acid], the negative-log IC50 (pIC50) against IPMK (enzyme-coupled assay, Table 3) is 7.00 to 8.00; on IP6K3 (Table 3) it was 4.00 to 6.00.

For `O=C(O)c1ccc2noc(-c3cccc(Oc4ccccn4)c3)c2c1` [Compound 29], the negative logarithm of the IC50 (pIC50) is 4.00 to 6.00 on IPMK (enzyme-coupled assay, Table 2) and 4.00 to 6.00 against IP6K3 (Table 2).

The molecule `O=C(O)/C=C/c1ccc2noc(-c3ccc(-c4ccccc4)cc3)c2c1` [Compound 16] showed a pIC50 at IP6K3 (Table 1) of 6.00 to 7.00.

Regarding `O=C(O)/C=C/c1ccc2noc(-c3ccccc3)c2c1` [Compound 10], the pIC50 at IP6K3 (Table 1) was 4.00 to 6.00; against IP6K1 (enzyme-coupled assay, Table 1), 6.00 to 7.00.

In turn, `O=C(O)/C=C/c1ccc2noc(-c3ccc(Oc4ccccc4)cc3)c2c1` [Compound 15] showed a pIC50 at IP6K3 (Table 1) of 6.00 to 7.00.

Consider `O=C(O)c1ccc2noc(-c3ccc(NC(=O)C4CCCC4)cc3)c2c1` [Compound 43], for which the pIC50 on IPMK (enzyme-coupled assay, Table 2) was 4.00 to 6.00; at IP6K3 (Table 2), 6.00 to 7.00.

Consider `Cc1cccc(-c2onc3ccc(C(=O)O)cc23)c1` [Compound 18, 3-(m-tolyl)benzo[c]isoxazole-5-carboxylic acid], for which the “IPMK IC50” value on IPMK (enzyme-coupled assay, Table 2) is reported as “−”. The same molecule had a pIC50 against IP6K3 (Table 2) of 4.00 to 6.00.

Take `O=C(C1CC1)N1CCC(Oc2cccc(-c3onc4ccc(-c5nnn[nH]5)cc34)c2)CC1` [Compound 89]: the pIC50 at IPMK (enzyme-coupled assay, Table 4) is more than 8.00; at IP6K1 (enzyme-coupled assay, Table 4), 7.00 to 8.00; against IP6K2 (enzyme-coupled assay, Table 4), 7.00 to 8.00.

For `CNC(=O)c1ccc2noc(-c3cccc(Oc4ncc(Cl)cc4Cl)c3)c2c1` [Compound 31], the pIC50 was 4.00 to 6.00 against IPMK (enzyme-coupled assay, Table 2); 6.00 to 7.00 against IP6K1 (enzyme-coupled assay, Table 2); 6.00 to 7.00 against IP6K2 (enzyme-coupled assay, Table 2).

For `O=C(Nc1ccc(-c2onc3ccc(-c4noc(=O)[nH]4)cc23)cc1)C1CNC1` [Cmpd 137], the pIC50 was 6.00 to 7.00 against IPMK (setting [1]), 6.00 to 7.00 against IP6K1 (setting [1]) and 4.00 to 6.00 on IP6K2 (setting [1]).

On to `O=c1[nH]c(-c2ccc3noc(-c4cccc(OC5CCN(C6COC6)CC5)c4)c3c2)no1` [Cmpd 134], for which the pIC50 against IPMK (setting [1]), against IP6K1 (setting [1]) and against IP6K2 (setting [1]) was 6.00 to 7.00 in each case.

On to `O=c1[nH]c(-c2ccc3noc(-c4cccc(OC5CCN(CC6CC6)CC5)c4)c3c2)no1` [Cmpd 132], for which the pIC50 is 7.00 to 8.00 against IPMK (setting [1]), 6.00 to 7.00 at IP6K1 (setting [1]) and 6.00 to 7.00 at IP6K2 (setting [1]).

In the case of `CN1CCC(Oc2cccc(-c3onc4ccc(-c5nnn[nH]5)cc34)c2)CC1` [Compound 86], the pIC50 was 7.00 to 8.00 against IPMK (enzyme-coupled assay, Table 4); 7.00 to 8.00 at IP6K1 (enzyme-coupled assay, Table 4); 7.00 to 8.00 against IP6K2 (enzyme-coupled assay, Table 4).

As for `O=C(O)c1ccc2noc(-c3cccc(-c4cccc(Cl)c4)c3)c2c1` [Compound 51], the negative logarithm of the IC50 (pIC50) against IPMK (enzyme-coupled assay, Table 2) was 7.00 to 8.00; at IP6K1 (enzyme-coupled assay, Table 2), 6.00 to 7.00; on IP6K2 (enzyme-coupled assay, Table 2), 6.00 to 7.00.

With `CC1(C(=O)N2CCC(Oc3cccc(-c4onc5ccc(-c6noc(=O)[nH]6)cc45)c3)CC2)COC1` [Cmpd 139], the pIC50 at IPMK (setting [1]) is 6.00 to 7.00; on IP6K1 (setting [1]), 6.00 to 7.00; against IP6K2 (setting [1]) it was 7.00 to 8.00.

For `O=C(Nc1ccc(-c2onc3ccc(-c4noc(=O)[nH]4)cc23)cc1)C1CCCC1` [Cmpd 130], the negative-log IC50 (pIC50) was 7.00 to 8.00 against IPMK (setting [1]), more than 8.00 against IP6K1 (setting [1]) and more than 8.00 against IP6K2 (setting [1]).

`O=C(O)/C=C/c1ccc2noc(-c3ccc(OC(F)(F)F)cc3)c2c1` [Compound 14] gave a pIC50 on IP6K3 (Table 1) of 4.00 to 6.00.

For `O=C(Nc1ccc(-c2onc3ccc(-c4noc(=O)[nH]4)cc23)cc1)[C@@H]1CCCN1` [Cmpd 136], the pIC50 against IPMK (setting [1]) is 7.00 to 8.00; at IP6K1 (setting [1]) it was 6.00 to 7.00; against IP6K2 (setting [1]), 6.00 to 7.00.
